Common to all, as to assay type: biochemical
The target of one experiment is T1, JAK1 (Homo sapiens, UniProt P23458).
T1 construct: JAK1 (aa 850-1154) and TYK2 (aa 871-1187) are expressed with an N-terminally fused GST-tag; GST (N); purchased Carna Biosciences, Inc; host or cells: baculovirus expression system
Description: JAK kinase assay (HTRF, phosphorylation of synthetic peptide), JAK1. To be noted: catalytic domain, ATP at Km (7 μM); read-out: JAK1 kinase inhibitory activity (EC50). The method in brief: (§1)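 Catalytic-domain human JAK1 (GST-tagged, aa 850-1154) or His-tagged JAK2, baculovirus-expressed, phosphorylated 1 µM biotinylated TK peptide at Km ATP (JAK1 7 µM, 10 mM MgCl2, 50 nM SEB; JAK2 4 µM, 5 mM MgCl2) in pH 7.0 Hepes, 20-30 min RT. EDTA stop; overnight streptavidin-XL665/cryptate HTRF read.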
A general note: In TR-FRET formats the signal depends on donor and acceptor labels being close together.

Another experiment has as its target T2, JAK2 (Homo sapiens, UniProt O60674).
T2 construct: All four purified enzymes contain only the catalytic domain; His (N); purchased Carna Biosciences, Inc; host or cells: baculovirus expression system
Description: JAK kinase assay (HTRF, phosphorylation of synthetic peptide), JAK2. As to conditions: catalytic domain, ATP at Km (4 μM); read-out: JAK2 kinase inhibitory activity (EC50). In a few lines: as §1

Another experiment deals with T3, JAK3 (Homo sapiens, UniProt P52333).
T3 construct: All four purified enzymes contain only the catalytic domain; His (N); purchased Carna Biosciences, Inc; host or cells: baculovirus expression system
T3 sequence (P52333 822-1111 limits assumed): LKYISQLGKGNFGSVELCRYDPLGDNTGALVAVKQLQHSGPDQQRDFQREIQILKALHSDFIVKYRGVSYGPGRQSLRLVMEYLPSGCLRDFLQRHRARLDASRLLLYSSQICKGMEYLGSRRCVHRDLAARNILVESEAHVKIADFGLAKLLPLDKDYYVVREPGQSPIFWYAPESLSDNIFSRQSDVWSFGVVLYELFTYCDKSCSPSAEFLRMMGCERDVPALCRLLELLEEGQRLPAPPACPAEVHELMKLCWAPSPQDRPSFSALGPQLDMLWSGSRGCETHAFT
Description: JAK kinase assay (HTRF, phosphorylation of synthetic peptide), JAK3. As to conditions: catalytic domain, ATP at Km (2 μM); read-out: JAK3 kinase inhibitory activity (EC50).

The target of a further experiment is T4, TYK2 (Homo sapiens, UniProt P29597).
T4 construct: JAK1 (aa 850-1154) and TYK2 (aa 871-1187) are expressed with an N-terminally fused GST-tag; GST (N); purchased Carna Biosciences, Inc; host or cells: baculovirus expression system
T4 sequence (P29597 871-1187): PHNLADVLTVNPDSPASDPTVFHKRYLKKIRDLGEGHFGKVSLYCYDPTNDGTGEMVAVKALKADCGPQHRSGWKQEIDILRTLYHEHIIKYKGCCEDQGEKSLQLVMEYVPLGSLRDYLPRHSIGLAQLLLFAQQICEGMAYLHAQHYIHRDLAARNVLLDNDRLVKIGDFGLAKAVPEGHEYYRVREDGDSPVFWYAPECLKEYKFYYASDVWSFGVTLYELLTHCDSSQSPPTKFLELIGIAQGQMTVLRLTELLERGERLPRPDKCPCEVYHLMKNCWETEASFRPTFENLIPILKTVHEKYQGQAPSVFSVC
Description: JAK kinase assay (HTRF, phosphorylation of synthetic peptide), TYK2. To be noted: catalytic domain, ATP at Km (13 μM); read-out: TYK2 kinase inhibitory activity (EC50). The method in brief: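 1 µM biotinylated TK peptide at Km ATP in pH 7.0 Hepes, 20-30 min RT. EDTA stop; overnight streptavidin-XL665/cryptate HTRF read.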

As usually defined, the EC50 is the concentration needed to bring the measured effect to its halfway point.

T1 sequence (P23458 850-1154): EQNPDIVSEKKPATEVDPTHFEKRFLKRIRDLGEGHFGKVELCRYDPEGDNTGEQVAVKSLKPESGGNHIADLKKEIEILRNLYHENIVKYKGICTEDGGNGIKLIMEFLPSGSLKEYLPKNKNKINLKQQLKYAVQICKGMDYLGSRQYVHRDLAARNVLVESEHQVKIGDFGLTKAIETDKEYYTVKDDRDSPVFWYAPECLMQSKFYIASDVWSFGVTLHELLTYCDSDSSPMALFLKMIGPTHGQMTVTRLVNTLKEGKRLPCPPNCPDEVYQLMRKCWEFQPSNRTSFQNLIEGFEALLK
T2 sequence (O60674 849-1124 limits assumed): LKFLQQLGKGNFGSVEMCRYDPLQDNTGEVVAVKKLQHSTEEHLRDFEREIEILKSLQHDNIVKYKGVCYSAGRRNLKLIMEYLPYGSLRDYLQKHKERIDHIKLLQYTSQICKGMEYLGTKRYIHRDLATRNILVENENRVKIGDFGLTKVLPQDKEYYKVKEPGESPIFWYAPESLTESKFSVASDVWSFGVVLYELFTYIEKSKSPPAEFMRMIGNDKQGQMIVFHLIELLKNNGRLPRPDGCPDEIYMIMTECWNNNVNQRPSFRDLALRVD

For the compound `CC(C)NS(=O)(=O)N1CCN(c2ncnc3[nH]ccc23)CC12CC2` [Example 50, 7-(7H-Pyrrolo[2,3-d]pyrimidin-4-yl)-4,7-diaza-spiro[2.5]octane-4-sulfonic acid isopropylamide], the EC50 at JAK1 was 100 to 500 nM; on JAK2, less than 100 nM; on JAK3, 100 to 500 nM; on TYK2, 100 to 500 nM.
For the compound `CN(C(=O)CC1CCCC1)S(=O)(=O)N1CCN(c2ncnc3[nH]ccc23)CC12CC2` [Example 133, 2-cyclopentyl-N-methyl-N-[[5-(7H-pyrrolo[2,3-d]pyrimidin-4-yl)-5,8-diazaspiro[2.5]octan-8-yl]sulfonyl]acetamide], the EC50 on JAK1 is less than 100 nM; on JAK2, less than 100 nM; at JAK3 it was 100 to 500 nM; on TYK2, 100 to 500 nM.
For the compound `CN(C[C@H]1CCCN1S(=O)(=O)CCCC#N)S(=O)(=O)N1CCN(c2ncnc3[nH]ccc23)CC12CC2` [Example 182, N-[[(2R)-1-(3-cyanopropylsulfonyl)pyrrolidin-2-yl]methyl]-N-methyl-5-(7H-pyrrolo[2,3-d]pyrimidin-4-yl)-5,8-diazaspiro[2.5]octane-8-sulfonamide], the EC50 at JAK1, at JAK2, on JAK3 and on TYK2 was less than 100 nM each time.

(Values after patent publication US9233964B2, “Sulfamide piperazine derivatives as protein tyrosine kinase inhibitors and pharmaceutical use therof” (LEO PHARMA A/S, priority 2011, dated 2016).)
